# Laboratory results taken from ChEMBL document CHEMBL1201862, “PubChem BioAssay data set” (2004).
# The source made the active and inactive calls.
# Tests used:
# [1] = target: Integrin alpha-L (Mus musculus, UniProt P24063); test: modulators of CD8 T cell-vesicle binding, dose response, powder samples, mouse 2C CD8+ cells (AID 504565); assay type: functional
# [2] = target: T1, Short transient receptor potential channel 4 (Mus musculus, UniProt Q9QUQ5); test: potentiation of DAMGO-evoked TRPC4 calcium signal – cell-based, HEK293 TRPC4/mu-opioid, Fluo-4 calcium, EC20 DAMGO, dose response (AID 434941); assay type: functional
# T1 sequence (Q9QUQ5 whole entry): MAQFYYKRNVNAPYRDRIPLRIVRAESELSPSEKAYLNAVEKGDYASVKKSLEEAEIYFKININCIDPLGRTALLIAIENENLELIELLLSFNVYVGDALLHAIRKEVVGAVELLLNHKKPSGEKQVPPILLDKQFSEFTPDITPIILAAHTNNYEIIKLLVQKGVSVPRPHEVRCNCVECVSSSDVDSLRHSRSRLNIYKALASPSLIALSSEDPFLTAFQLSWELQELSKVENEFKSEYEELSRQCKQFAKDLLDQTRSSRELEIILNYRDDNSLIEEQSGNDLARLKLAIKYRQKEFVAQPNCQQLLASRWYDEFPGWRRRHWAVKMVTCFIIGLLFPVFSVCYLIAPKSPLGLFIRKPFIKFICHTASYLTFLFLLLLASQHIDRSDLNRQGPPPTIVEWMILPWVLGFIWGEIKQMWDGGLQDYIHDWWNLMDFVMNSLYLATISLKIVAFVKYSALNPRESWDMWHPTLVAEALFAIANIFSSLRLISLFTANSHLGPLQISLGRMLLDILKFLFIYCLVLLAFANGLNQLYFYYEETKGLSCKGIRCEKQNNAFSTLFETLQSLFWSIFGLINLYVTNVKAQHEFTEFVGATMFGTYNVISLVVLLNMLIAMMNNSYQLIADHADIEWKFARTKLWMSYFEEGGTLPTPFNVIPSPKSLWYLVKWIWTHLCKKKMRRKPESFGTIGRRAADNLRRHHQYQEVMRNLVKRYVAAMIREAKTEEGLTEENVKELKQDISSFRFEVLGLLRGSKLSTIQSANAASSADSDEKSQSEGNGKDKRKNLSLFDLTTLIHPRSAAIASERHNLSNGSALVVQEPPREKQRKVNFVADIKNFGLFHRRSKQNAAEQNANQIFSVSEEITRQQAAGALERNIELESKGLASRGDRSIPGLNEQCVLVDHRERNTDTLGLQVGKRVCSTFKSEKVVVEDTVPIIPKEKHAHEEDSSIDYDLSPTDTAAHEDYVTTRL
# [3] = target: T2, Tyrosine-protein phosphatase non-receptor type 7 (Homo sapiens, UniProt P35236); assay type: functional
# T2 sequence (P35236 whole entry): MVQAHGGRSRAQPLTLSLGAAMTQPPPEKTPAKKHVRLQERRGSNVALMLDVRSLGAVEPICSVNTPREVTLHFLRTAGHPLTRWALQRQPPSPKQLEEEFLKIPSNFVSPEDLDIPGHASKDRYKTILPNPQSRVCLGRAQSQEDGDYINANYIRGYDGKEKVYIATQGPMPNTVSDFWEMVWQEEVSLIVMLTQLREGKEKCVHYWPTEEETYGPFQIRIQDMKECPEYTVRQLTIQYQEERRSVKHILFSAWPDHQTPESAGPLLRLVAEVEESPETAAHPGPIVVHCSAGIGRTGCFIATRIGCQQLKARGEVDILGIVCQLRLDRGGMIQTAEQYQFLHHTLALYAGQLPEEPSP
# [4] = target: Glyceraldehyde-3-phosphate dehydrogenase (Homo sapiens, UniProt P04406)
# Sequence of Glyceraldehyde-3-phosphate dehydrogenase (P04406 whole entry): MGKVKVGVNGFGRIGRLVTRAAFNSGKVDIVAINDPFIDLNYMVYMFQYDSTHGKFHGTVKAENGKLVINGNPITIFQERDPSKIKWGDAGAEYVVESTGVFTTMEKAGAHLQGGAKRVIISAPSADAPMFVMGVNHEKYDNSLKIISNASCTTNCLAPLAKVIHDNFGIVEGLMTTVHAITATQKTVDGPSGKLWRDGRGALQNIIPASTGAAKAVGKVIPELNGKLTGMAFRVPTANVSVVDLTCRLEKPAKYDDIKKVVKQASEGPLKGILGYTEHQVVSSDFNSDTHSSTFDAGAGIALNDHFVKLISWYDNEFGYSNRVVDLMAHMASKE
# [5] = target: T3, Dual specificity protein phosphatase 6 (Rattus norvegicus, UniProt Q64346)
# T3 sequence (Q64346 whole entry): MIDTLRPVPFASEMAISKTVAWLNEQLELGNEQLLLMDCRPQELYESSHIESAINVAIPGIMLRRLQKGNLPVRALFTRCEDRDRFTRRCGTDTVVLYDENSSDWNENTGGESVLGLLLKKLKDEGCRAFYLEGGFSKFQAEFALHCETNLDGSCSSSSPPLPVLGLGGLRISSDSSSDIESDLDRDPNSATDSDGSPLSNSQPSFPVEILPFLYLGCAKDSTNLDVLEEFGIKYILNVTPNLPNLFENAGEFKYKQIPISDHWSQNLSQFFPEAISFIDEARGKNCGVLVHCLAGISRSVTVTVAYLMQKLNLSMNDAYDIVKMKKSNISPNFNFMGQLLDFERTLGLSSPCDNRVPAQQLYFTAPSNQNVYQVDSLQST
# [6] = target: T1, Short transient receptor potential channel 4; test: block of DAMGO-driven TRPC4 calcium entry – cell-based, HEK293 TRPC4/mu-opioid, Fluo-4 calcium, dose response (AID 434942); assay type: functional;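 further: potency of inhibitors blocking the TRPC4 calcium response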
# [7] = target: T4, Dual specificity protein phosphatase 3 (Homo sapiens, UniProt P51452); test: SAR VHR1 Fluorescent Assay for In Vitro dose response studies. [Related pubchem assays (depositor defined):AID1654, AID1661, AID1878, AID1992, AID2004, AID2070, AID2085]; assay type: functional
# T4 sequence (P51452 whole entry): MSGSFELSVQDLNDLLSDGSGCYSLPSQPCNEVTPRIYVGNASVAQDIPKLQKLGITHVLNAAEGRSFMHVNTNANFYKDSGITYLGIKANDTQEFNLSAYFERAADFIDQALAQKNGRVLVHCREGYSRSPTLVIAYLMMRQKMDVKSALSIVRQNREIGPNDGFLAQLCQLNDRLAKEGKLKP
# [8] = target: T4, Dual specificity protein phosphatase 3; test: MOA VHR1 Fluorescent secondary assay for identification of redox-state modulating compounds. [Related pubchem assays (depositor defined):AID1654, AID1661, AID1878, AID1957]
# [9] = target: T2, Tyrosine-protein phosphatase non-receptor type 7; test: redox-active compounds inhibiting HePTP phosphatase – biochemical, fluorescence, mechanism study (AID 2068); assay type: functional
# [10] = target: T1, Short transient receptor potential channel 4; test: calcium entry via TRPC4 opening agents – cell-based, HEK293 TRPC4/mu-opioid, Fluo-4 calcium, dose response (AID 434937); assay type: functional
# [11] = target: T3, Dual specificity protein phosphatase 6; assay type: functional
# [12] = target: T5, Voltage-gated N-type calcium channel alpha-1B subunit/Amyloid beta A4 precursor protein-binding family A member 1 (Homo sapiens, UniProt Q00975+Q02410); assay type: protein assay
# T5 sequence (Q00975 whole entry): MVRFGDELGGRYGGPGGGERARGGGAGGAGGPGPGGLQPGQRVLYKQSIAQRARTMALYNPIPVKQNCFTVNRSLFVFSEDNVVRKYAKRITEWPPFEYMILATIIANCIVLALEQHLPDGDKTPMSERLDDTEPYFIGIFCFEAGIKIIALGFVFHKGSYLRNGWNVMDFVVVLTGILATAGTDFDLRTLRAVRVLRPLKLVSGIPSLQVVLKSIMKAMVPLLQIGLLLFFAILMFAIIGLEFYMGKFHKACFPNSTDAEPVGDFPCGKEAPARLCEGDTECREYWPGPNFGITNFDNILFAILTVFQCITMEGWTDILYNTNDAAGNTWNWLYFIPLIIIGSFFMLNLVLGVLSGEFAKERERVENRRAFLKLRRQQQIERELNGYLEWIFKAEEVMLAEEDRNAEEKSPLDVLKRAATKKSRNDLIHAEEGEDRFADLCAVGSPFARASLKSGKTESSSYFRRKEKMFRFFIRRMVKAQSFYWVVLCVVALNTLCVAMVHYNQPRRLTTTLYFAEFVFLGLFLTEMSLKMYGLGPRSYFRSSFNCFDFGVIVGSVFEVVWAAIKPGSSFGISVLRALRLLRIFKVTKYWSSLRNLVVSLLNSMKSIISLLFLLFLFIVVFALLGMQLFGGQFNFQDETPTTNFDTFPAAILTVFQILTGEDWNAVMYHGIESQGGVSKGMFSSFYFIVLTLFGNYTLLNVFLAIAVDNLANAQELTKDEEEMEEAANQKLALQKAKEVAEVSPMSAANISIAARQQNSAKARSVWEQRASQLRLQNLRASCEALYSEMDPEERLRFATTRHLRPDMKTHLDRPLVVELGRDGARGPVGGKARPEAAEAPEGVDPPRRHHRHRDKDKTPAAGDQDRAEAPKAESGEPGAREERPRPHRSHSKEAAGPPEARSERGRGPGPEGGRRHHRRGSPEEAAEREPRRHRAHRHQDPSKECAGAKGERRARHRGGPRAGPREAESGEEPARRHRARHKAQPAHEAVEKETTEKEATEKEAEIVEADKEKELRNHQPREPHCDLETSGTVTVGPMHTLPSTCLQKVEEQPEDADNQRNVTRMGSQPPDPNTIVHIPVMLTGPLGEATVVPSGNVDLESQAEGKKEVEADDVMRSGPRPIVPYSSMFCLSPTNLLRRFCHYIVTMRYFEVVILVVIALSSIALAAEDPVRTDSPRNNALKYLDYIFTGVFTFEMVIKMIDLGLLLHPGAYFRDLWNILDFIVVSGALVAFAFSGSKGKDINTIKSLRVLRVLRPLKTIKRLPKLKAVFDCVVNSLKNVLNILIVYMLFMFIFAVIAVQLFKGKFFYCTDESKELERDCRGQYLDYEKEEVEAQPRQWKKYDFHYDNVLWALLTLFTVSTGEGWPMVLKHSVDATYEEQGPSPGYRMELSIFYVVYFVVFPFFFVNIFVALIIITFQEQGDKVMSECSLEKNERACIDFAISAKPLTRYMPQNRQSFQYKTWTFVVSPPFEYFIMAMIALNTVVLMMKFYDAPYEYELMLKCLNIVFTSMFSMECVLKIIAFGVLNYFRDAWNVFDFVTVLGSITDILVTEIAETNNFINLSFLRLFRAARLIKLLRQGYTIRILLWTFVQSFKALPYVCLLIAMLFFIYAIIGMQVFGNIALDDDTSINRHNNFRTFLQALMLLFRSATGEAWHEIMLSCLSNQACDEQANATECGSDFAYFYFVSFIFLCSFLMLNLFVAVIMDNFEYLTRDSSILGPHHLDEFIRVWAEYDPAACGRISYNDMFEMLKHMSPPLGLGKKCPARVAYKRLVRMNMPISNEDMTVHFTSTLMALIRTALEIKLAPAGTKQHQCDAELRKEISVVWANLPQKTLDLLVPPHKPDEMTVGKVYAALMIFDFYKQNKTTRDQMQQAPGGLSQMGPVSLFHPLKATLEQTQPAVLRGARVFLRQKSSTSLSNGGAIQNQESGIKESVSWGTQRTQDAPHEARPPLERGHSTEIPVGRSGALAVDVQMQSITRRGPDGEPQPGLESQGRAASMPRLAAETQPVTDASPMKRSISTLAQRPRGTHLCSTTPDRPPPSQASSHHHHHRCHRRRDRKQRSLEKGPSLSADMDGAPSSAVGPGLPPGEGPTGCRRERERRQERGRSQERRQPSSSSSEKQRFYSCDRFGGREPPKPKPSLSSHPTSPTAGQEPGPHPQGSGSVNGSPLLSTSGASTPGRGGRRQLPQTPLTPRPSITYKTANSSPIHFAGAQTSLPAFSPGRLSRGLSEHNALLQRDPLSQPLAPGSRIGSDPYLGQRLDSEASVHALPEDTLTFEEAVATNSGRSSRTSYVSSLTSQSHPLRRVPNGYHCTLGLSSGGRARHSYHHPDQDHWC
# T5 sequence (Q02410 whole entry): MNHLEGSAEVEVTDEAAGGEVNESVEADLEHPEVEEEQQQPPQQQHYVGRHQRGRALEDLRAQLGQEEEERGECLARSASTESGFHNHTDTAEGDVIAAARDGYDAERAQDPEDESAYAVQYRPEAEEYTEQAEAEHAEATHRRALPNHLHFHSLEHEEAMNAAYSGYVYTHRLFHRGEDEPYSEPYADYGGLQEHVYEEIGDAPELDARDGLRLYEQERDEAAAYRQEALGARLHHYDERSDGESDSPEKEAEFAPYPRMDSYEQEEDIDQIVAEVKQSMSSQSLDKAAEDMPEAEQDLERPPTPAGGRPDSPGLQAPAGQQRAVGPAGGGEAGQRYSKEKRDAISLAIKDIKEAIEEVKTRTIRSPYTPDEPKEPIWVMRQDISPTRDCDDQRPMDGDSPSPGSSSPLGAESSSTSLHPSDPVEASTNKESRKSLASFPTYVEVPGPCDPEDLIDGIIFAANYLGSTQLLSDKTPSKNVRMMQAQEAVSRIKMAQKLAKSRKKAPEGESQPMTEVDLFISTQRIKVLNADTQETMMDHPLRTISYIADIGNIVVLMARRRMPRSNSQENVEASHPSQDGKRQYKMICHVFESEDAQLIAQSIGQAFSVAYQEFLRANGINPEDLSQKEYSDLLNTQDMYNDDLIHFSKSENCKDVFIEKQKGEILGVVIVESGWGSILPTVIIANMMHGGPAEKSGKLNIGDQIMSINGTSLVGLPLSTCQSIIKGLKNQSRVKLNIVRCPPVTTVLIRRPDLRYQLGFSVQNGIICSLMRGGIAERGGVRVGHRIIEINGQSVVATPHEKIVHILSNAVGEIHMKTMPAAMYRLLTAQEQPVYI
# [13] = target: T5, Voltage-gated N-type calcium channel alpha-1B subunit/Amyloid beta A4 precursor protein-binding family A member 1; assay type: protein assay; remark: listed apart in the source
# [14] = target: Hexokinase (Trypanosoma brucei, UniProt Q38C41); test: Confirmation assay for inhibitors of Trypanosoma brucei hexokinase 1-Analogue-first series. [Related pubchem assays (depositor defined):AID1430, AID1632, AID2516, AID2560, AID2579, AID2600, AID449725, AID492951]; assay type: functional
# Sequence of Hexokinase (Q38C41 whole entry): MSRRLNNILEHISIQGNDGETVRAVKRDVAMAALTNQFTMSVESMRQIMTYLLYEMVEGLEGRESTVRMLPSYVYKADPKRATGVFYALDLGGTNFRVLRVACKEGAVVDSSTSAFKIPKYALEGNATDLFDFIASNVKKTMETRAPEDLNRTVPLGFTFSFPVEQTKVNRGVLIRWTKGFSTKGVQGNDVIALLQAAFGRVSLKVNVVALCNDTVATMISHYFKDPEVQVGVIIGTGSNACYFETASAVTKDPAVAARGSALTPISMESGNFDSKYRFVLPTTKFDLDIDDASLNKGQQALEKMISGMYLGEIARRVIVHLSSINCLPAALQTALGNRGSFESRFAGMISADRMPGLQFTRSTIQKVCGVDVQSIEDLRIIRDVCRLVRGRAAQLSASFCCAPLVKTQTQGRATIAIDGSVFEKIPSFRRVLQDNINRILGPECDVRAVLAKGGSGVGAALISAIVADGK
# [15] = Luminescent dose response cell-based high throughput screening assay for inhibitors of the Janus kinase 2 mutant JAK2V617F. [Related pubchem assays: 1446 (Primary screen.), 1521 (Confirmation assay.), 1486 (Counter screen.)]; assay type: functional
# [16] = luciferase reporter signal suppression in cells – H4 neuroglioma cells, luminescence, dose response (AID 1990); assay type: functional, cell-based
# [17] = target: E3 ubiquitin-protein ligase Mdm2 (Homo sapiens, UniProt Q00987); test: MDM2-luc reporter signal enhancers, multi-concentration potency testing, MDM2 ubiquitin-protein ligase inhibitor program, whole-cell format, luminescence detection, 384-well microplate (AID 1394); assay type: functional;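 further: MDM2 E3 inhibitors raise luminescence so EC50 is for signal enhancement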
# [18] = tested on: HeLa; test: Cytotoxicity counterscreen assay for transcriptional activators of heat shock protein 70 (Hsp70). [Related pubchem assays: 1203, 1252 ]; assay type: functional; conditions: Homo sapiens;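 further: cells exposed to compound for 16 hours before readout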
# [19] = tested on: BJ; test: BJ-TERT fibroblast viability loss – cell-based, RAS-independent, luminescence, dose response (AID 1933); assay type: functional; conditions: Homo sapiens
# [20] = Luminescence Cell-Based Dose Response HTS to Identify Inhibitors of 5'UTR Stem-Loop Driven Prion Protein mRNA Translation in H4 Neuroglioblastoma Cells. [Related pubchem assays: 1827 (Project Summary), 1813 (Primary HTS)]; assay type: functional
# [21] = alpha-synuclein stem-loop luciferase translation blockers – H4 neuroglioma cells, luminescence, confirmation (AID 1988); assay type: functional, cell-based
# [22] = tested on: BJ; test: cells; assay type: functional, cell-based; conditions: Homo sapiens
# [23] = tested on: BJ; test: BJ-TERT-LT-ST fibroblast viability loss – cell-based, RAS-independent, luminescence, dose response (AID 1935); assay type: functional; conditions: Homo sapiens;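 further: BJ fibroblasts immortalized with TERT plus LT and ST oncogenes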
# [24] = DRD fibroblast viability loss – cell-based, non-viral oncogenic, luminescence, dose response (AID 1934); assay type: functional; conditions: Homo sapiens
# [25] = target: E3 ubiquitin-protein ligase Mdm2/Protein Mdm4 (Homo sapiens, UniProt O15151+Q00987); test: disruption of Mdm2/MdmX protein binding – luminescence detection, dose response (AID 504593); assay type: functional
# [26] = HEK-293T viability loss after treatment – luminescence, T-cell screen hits, cytotoxicity control for TCR NF-kB inhibitor project, dose response (AID 489026); assay type: functional, cell-based;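 further: cells exposed to compound about 14 hours before the viability readout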
# [27] = tested on: BJ; test: growth inhibition of engineered Ras-driven BJ cells – cell-based, alamar blue fluorescence, cherrypicked samples, dose response (AID 2631); assay type: functional; conditions: Homo sapiens;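 further: confirmatory dose-response assay in RAS-dependent BJ fibroblasts engineered with TERT, LT and ST, with cytotoxicity read by fluorescence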
# [28] = tested on: INS1; test: INS-1E survival protection against cytokine death – cell-based, luminescence, retest, dose response (AID 449756); assay type: functional; conditions: Rattus norvegicus;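 further: cell death triggered by IL-1 beta plus TNF-alpha plus IFN-gamma mixture; protective hits raise ATP signal compared with cytokine alone wells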
# [29] = target: T6, Hepatocyte nuclear factor 4-alpha (Homo sapiens, UniProt P41235); assay type: functional, cell-based;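 further: biochemical luminescence-based dose-response counterscreen measuring inhibition of HNF4 dimerization, run alongside a screen for blockers of ABHD5–perilipin-5 interaction; split luciferase complementation of HNF4 fusion proteins in cell lysate measuring dimerization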
# T6 sequence (P41235 whole entry): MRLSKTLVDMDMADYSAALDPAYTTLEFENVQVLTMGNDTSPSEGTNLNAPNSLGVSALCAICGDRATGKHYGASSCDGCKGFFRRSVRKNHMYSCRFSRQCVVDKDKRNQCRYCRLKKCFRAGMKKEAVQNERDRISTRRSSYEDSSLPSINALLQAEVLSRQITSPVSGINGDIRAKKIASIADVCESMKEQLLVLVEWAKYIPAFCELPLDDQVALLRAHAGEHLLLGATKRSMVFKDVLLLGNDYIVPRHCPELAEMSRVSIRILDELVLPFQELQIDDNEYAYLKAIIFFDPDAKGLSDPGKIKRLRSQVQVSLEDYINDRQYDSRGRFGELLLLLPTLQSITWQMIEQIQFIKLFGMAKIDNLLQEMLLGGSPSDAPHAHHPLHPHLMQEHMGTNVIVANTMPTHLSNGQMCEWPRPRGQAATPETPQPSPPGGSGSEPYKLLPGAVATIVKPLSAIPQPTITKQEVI
# [30] = tested on: Vero; test: Vero 76 cell viability after compound exposure – Vero 76 cells, synthesized analogs, cytotoxicity control for West Nile virus antiviral project, SAR follow-up (AID 2414); assay type: functional; conditions: Chlorocebus sabaeus
# [31] = tested on: Vero; test: Vero cell viability after compound exposure – synthesized analogs, set II, cytotoxicity control for West Nile virus antiviral project, SAR follow-up (AID 2402); assay type: functional; conditions: Chlorocebus sabaeus
# [32] = tested on: Vero; test: host cell viability loss, Vero E6 – synthesized analogs, cytotoxicity control for West Nile virus antiviral project, SAR follow-up (AID 2244); assay type: functional; conditions: Chlorocebus sabaeus
# [33] = tested on: Vero; test: antiviral protection of cells from WNV – synthesized analogs, SAR follow-up (AID 2238); assay type: functional, cell-based; conditions: Chlorocebus sabaeus
# [34] = target: Alkaline phosphatase, placental type (Homo sapiens, UniProt P05187); test: human placental alkaline phosphatase inhibition – biochemical, luminescence, confirmation (AID 1512); assay type: functional
# Sequence of Alkaline phosphatase, placental type (P05187 whole entry): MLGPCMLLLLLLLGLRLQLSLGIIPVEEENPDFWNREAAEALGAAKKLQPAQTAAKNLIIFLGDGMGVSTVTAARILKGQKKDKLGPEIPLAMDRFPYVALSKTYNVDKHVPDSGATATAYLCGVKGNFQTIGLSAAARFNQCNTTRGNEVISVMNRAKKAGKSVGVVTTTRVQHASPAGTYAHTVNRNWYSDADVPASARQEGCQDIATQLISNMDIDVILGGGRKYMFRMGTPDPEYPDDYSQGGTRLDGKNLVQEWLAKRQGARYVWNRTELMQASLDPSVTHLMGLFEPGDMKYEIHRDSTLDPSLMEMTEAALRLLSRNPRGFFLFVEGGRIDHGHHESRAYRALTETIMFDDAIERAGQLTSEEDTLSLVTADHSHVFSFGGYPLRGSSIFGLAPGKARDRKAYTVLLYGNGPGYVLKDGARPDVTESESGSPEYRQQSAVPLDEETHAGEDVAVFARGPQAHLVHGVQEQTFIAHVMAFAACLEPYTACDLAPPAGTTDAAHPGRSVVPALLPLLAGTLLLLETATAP
# [35] = target: T7, Alkaline phosphatase, tissue-nonspecific isozyme (Homo sapiens, UniProt P05186); test: potency against alkaline phosphatase TNAP – biochemical, luminescent, dose response, SAR follow-up (AID 1056)
# T7 sequence (P05186 whole entry): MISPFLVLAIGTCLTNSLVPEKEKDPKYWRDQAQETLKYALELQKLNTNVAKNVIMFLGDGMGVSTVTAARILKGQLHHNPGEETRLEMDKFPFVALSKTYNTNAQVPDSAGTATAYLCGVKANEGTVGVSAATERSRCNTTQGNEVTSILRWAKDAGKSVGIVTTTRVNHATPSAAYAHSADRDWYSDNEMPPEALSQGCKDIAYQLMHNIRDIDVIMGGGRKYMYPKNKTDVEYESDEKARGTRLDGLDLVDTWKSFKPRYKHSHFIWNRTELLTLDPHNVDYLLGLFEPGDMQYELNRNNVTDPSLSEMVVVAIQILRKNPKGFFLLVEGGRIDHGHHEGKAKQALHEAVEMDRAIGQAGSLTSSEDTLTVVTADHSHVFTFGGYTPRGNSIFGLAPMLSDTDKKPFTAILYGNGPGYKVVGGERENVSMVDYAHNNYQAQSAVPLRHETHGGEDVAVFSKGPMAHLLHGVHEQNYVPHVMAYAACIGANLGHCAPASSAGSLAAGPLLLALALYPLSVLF
smiles,measurement,setting,value
COc1ccc(S(=O)(=O)N2CCCC2C(=O)Nc2ccc(C(C)=O)cc2)cc1 (stereo not given),EC50,[1],0.04 µM (active)
Cc1ccc(C(C)C)cc1OCCCCN1CCCC1,EC50,[2],0.53 µM (active)
Cc1ccc2c(nc3s/c(=C\c4ccc(-c5ccccc5C(=O)O)o4)c(=O)n32)c1C,IC50,[3],3.88 µM (active)
same,IC50,[4],> 100 µM (not active)
same,IC50,[5],22 µM (active)
same,EC50,[6],5.31 µM (active)
same,IC50,[7],5.71 µM (active)
same,IC50,[8],2.94 µM (active)
same,IC50,[9],2.2 µM (active)
same,EC50,[10],6.68 µM (active)
same,IC50,[11],35.3 µM (active)
COc1ccc2cc(/N=C/c3nc(-c4ccc(C)cc4)oc3O)cnc2c1,IC50,[12],10.3 µM (active)
same,IC50,[13],> 50 µM (inactive)
COc1ccc(C(=O)Nc2cc(Cl)c(C)cc2C(=O)O)cc1,IC50,[14],10.3 µM (active)
CCN1C/C(=C/c2ccc(OC)c(O)c2)C(=O)/C(=C/c2ccc(OC)c(O)c2)C1,IC50,[15],0.67 µM (active)
same,EC50,[16],0.374 µM (inconclusive)
same,EC50,[17],0.38 µM (active)
same,CC50,[18],> 3.67 µM (not active)
same,EC50,[19],1.78 µM (inconclusive)
same,EC50,[20],0.221 µM (active)
same,EC50,[21],4.84 µM (active)
same,EC50,[22],1.35 µM (inconclusive)
same,EC50,[23],1.25 µM (inconclusive)
same,EC50,[24],1.34 µM (active)
same,IC50,[25],8.47 µM (active)
same,IC50,[26],> 80 µM (inactive)
same,EC50,[27],0.38 µM (active)
same,AC50,[28],4.09 µM (active)
same,IC50,[29],12.9 µM (inactive)
O=C(CSc1nc2ccccc2c(=O)n1-c1ccccc1F)Nc1ccc2c(c1)CCC2,CC50,[30],> 66.6 µM (active)
same,CC50,[31],> 100 µM (active)
same,CC50,[32],> 40 µM (active)
same,IC50,[33],16.4 µM (active)
COc1ccc(-c2nnc(SCC(=O)c3ccc(O)c(O)c3)n2-c2ccc(Cl)cc2)cc1,IC50,[34],25 µM (active)
same,IC50,[35],> 100 µM (inactive)
